Test results reported in patent US11147797B2, “Photodynamic therapeutic compounds and photodynamic methods of treatment” (SALT AND LIGHT PHARMACEUTICALS PTY. LTD., priority 2016, dated 2021).

What was measured:
[1] = tested on: Ras-Raf binding; assay: Ras activation ELIZA kit assay (chemiluminescent)
Protocol: 1.5.2 ELIZA Assay: Another method to detect the inhibition of the Representative Compounds used a Ras activation ELIZA kit (Merck Millipore, Cat no 17-497). The protocol was in accordance with the manual provided with the kit. The inhibition was measured using a Chemiluminescent imaging system. The known inhibitor Kobe0065 was purchased from Focus Biosciences, Australia (www.focusbio.com.au) and used as the positive control.

[2] = Absorption spectrum; format: physicochemical; conditions: compound 10 μM; long wavelength range
Protocol: 1.4 Absorption spectrum: The absorption spectra of the Representative Compounds were acquired. The concentration of compound was 10 μM.

[3] = tested on: HCT-116 cells; assay: Cell proliferation assay (Cell Titre-Blue Cell Viability Assay); format: cell-based; conditions: Homo sapiens; HCT-116 colon-cancer cell line; FIG. 9, FIG. 10; read-out: IC50, inhibition of cell growth of HCT-116
Protocol: 1.8 Cells: Human cell lines were obtained from the NIH cell culture and cultured in media recommended by supplier.
1.9: Cell Proliferation Assays: Cells (2-3000) were seeded in a 96-well plate and cultured in McCoy's 5 containing 10% (vol/vol) FBS in the presence of one of compounds. Viable cell numbers were measured using a fluorometric kit (“Cell Titre-Blue Cell Viability Assay”: Promega Inc, USA). The viable cells convert blue colour dye to red/pink after incubating at 37 degrees with 5% CO2.

[4] = tested on: binding between Ras and Ras-binding domain (RBD) of Rafl; assay: Ras pulldown with inhibitor interference (Active Ras PullDown and Detection Kit, Western blot)
Text: 1.5.1 Ras pulldown with inhibitor interference: Inhibition of compounds on binding between Ras and Ras-binding domain (RBD) of Rafl was firstly analysed using Active Ras PullDown and Detection Kit (Thermofisher Scientific, Catalogue no 16117). The protocol was in accordance with the manual supplied with the kit. Western blot analysis was used to measure the inhibition. The known Inhibitor Kobe0065 was purchased from Focus Biosciences, Australia (www.focusbio.com.au) and used as the positive control.

Row | Compound | Ras-Raf inhibition, ELIZA ([1]; 10 uM compound) [%] | Ras-Raf inhibition, ELIZA ([1]; 50 uM compound) [%] | absorption band [2] [nm] | IC50 [3] [µM] | IC50 ([1]; estimated from Table 2, read-out: inhibition IC50, Ras activation ELIZA assay) [µM] | Ras-Raf inhibition, Ras pulldown ([4]; 10 uM compound) [%] | Ras-Raf inhibition, Ras pulldown ([4]; 50 uM compound) [%] | inhibition in Ras activation ELIZA assay compared with Ras pulldown assay ([1]; in words) | IC50 ([4]; estimated from Table 2, read-out: inhibition IC50, Ras pulldown assay) [µM]
1 | C[n+]1cccc(-c2c3nc(c(-c4ccccc4)c4ccc(cc5nc(c(-c6ccccc6)c6ccc2[nH]6)C=C5)[nH]4)C=C3)c1.[I-] [Representative Compound 10, 3-(10,20-diphenylporphyrin-5-yl)-1-methylpyridin-1-ium iodide] | 35.2 | 13.4 | 637 | 20 to 25 | – | – | – | – | –
2 | Cc1ccc(NC(=S)NNc2c([N+](=O)[O-])cc(C(F)(F)F)cc2[N+](=O)[O-])cc1Cl [Kobe0065, reference compound] | 66.8 | 73.11 | – | – | < 10 | 0 | 76 | – | –
3 | C1=Cc2nc1c(-c1ccncc1)c1ccc([nH]1)c(-c1ccncc1)c1nc(c(-c3ccncc3)c3ccc([nH]3)c2-c2ccncc2)C=C1 [Representative Compound 1] | 34.61 | 35.73 | – | – | – | 0 | 76.5 | much weaker | 10 to 50
